For four molecules, Triple point temperature results are on record in the NIST ThermoML archive (doi:10.1021/je049762q).

Numbers after ± are expanded uncertainties.

As for `Clc1ccc(Cl)cc1` [1,4-dichlorobenzene], the Triple point temperature by setting is: (Crystal 1) 326.24 ± 0.09 K; (Crystal 2) 306 ± 2 K; (Crystal 3) 275 ± 0.4 K.

For `Brc1cc(Br)cc(Br)c1` [1,3,5-tribromobenzene], the Triple point temperature (Crystal) was 394.96 ± 0.16 K.

On to `Clc1cc(Cl)cc(Cl)c1` [1,3,5-trichlorobenzene], for which the Triple point temperature (Crystal) was 335.92 ± 0.09 K.

Take `Brc1ccc(Br)cc1` [1,4-dibromobenzene]: where the note is “Crystal”, the Triple point temperature amounted to 360.48 ± 0.09 K.
